In the experiment the test system is MX-1 breast xenograft, nude mice, tumor weight T/C. In words: NCI In Vivo Anticancer Drug Screen. Data for tumor model Human Mammary Carcinoma MX-1 Xenograft (intrarenal inoculation) in NU/NU Swiss (nude) mice. The note with it: endpoint: mean tumor weight change, higher = larger tumour. The procedure, abridged: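 Tumor-bearing mice were treated with test compound alongside a vehicle-treated control group. Survival or tumor size was measured, and activity is expressed as the treated-group value divided by the control-group value.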
(In general: A xenograft is tissue or cells of one species grown in another, often human tumour cells in immunodeficient mice.)

Where [1] appears, read: dose: 300.0 mg/kg/injection, schedule: Q04DX003 (sc), vehicle: Klucel (hydroxypropylcellulose) (HPC).
[2] abbreviates: dose: 600.0 mg/kg/injection, schedule: Q04DX003 (sc), vehicle: Klucel (hydroxypropylcellulose) (HPC).
Where [3] appears, read: dose: 12.5 mg/kg/injection, schedule: Q01DX010 (sc), vehicle: Klucel (hydroxypropylcellulose) (HPC).
The mark [4] stands for this setting: dose: 25.0 mg/kg/injection, schedule: Q01DX010 (sc), vehicle: Klucel (hydroxypropylcellulose) (HPC).
[5] abbreviates: dose: 40.0 mg/kg/injection, schedule: Q04DX003 (sc), vehicle: Klucel (hydroxypropylcellulose) (HPC).
Setting [6] is: dose: 150.0 mg/kg/injection, schedule: Q04DX003 (sc), vehicle: Klucel (hydroxypropylcellulose) (HPC).
The mark [7] stands for this setting: dose: 50.0 mg/kg/injection, schedule: Q01DX010 (sc), vehicle: Klucel (hydroxypropylcellulose) (HPC).
Setting [8] is: dose: 100.0 mg/kg/injection, schedule: Q01DX010 (sc), vehicle: Klucel (hydroxypropylcellulose) (HPC).
Where [9] appears, read: dose: 300.0 mg/kg/injection, schedule: Q04DX003 (sc), vehicle: saline.
[10] abbreviates: dose: 4.0 mg/kg/injection, schedule: Q01DX010 (sc), vehicle: water.
Setting [11] is: dose: 16.0 mg/kg/injection, schedule: Q01DX010 (sc), vehicle: water.

Each structure is given as a SMILES string. Values joined by “and” are separate entries in the source; they are usually repeats but may differ in a detail not shown here. Equal values may be shown once. Inconclusive results are not listed. *1 amine or outer side, *2 acyl side, *3 side chain or, on linkers, in order; H or OH if unused. Where a SMILES comes first, the peptide text is derived from it. [ ]: non-standard residue; d: D form. The star is where a group is joined. X2 = CCC(=O)CC1CC(C)CC(C(=O)[*:2])N1[*:1]; X1 = CCCCCCCCC(C)C(=O)*; Aib = CC(C)(N)C(=O)O; X3 = CC(CN(C)CCO)N*

In the case of `CC1=C[S+](c2ccccc2)c2cccc3cc4ccccc4c1c23` (centres undefined), the T/C was 69 % of control (dose: 8.0 mg/kg/injection, schedule: Q04DX003 (sc), vehicle: saline with Tween-80) and 75 % of control (dose: 16.0 mg/kg/injection, schedule: Q04DX003 (sc), vehicle: saline with Tween-80).
As to `CN(C)C(=O)SC1=C(c2c(Cl)cccc2Cl)C(=O)c2ccccc21`, the T/C runs as follows: under setting [1], 76 % of control; under setting [2], 65 % of control; (dose: 1200.0 mg/kg/injection, schedule: Q04DX003 (sc), vehicle: Klucel (hydroxypropylcellulose) (HPC)) 57 % of control; (dose: 2400.0 mg/kg/injection, schedule: Q04DX003 (sc), vehicle: Klucel (hydroxypropylcellulose) (HPC)) 67 % of control.
Turning to `CCCCCCCCC(C)C(=O)N1CCCC1C(=O)N1C(CC(=O)CC)CC(C)CC1C(=O)NC(C)C(=O)NC(C)(C)C(=O)NC(C)(C)C(=O)NC(C(=O)NC(C)C(=O)NC(C)(C)C(=O)NC(C)(C)C(=O)NC(C)CN(C)CCO)C(C)CC` (centres undefined) (X1-P[X2]A[Aib][Aib]IA[Aib][Aib]-X3; configuration not given here), the T/C is, setting by setting: (dose: 1.25 mg/kg/injection, schedule: Q04DX003 (sc), vehicle: Klucel (hydroxypropylcellulose) (HPC)) 105 % of control; (dose: 2.5 mg/kg/injection, schedule: Q04DX003 (sc), vehicle: Klucel (hydroxypropylcellulose) (HPC)) 113 % of control.
For the compound `Nc1nc2c(ncn2C2OC(CO)C(O)C2O)c(=O)[nH]1.Nc1nc2c(ncn2C2OC(CO)C(O)C2O)c(=O)[nH]1.[NH2-].[NH2-].[Pt+2]` (centres undefined), the T/C reads like this: (dose: 300.0 mg/kg/injection, schedule: Q04DX003 (sc), vehicle: water) 68 % of control; (dose: 600.0 mg/kg/injection, schedule: Q04DX003 (sc), vehicle: water) 22 % of control; (dose: 1200.0 mg/kg/injection, schedule: Q04DX003 (sc), vehicle: water) 3 % of control.
As for `[N-]=[N+]=C1N=CN=C1c1ncn[nH]1`, the T/C runs as follows: under setting [3], 121 % of control; under setting [4], 76 % of control.
On to `CC1CN1C(=O)NCCCCCCNC(=O)N1CC1C` (centres undefined), for which the T/C (dose: 5.0 mg/kg/injection, schedule: Q04DX003 (sc), vehicle: Klucel (hydroxypropylcellulose) (HPC)) is 21 % of control; the T/C under setting [5] was -86 % of control and -63 % of control.
Take `Nc1nncs1`: the T/C reads like this: (dose: 3.13 mg/kg/injection, schedule: Q01DX010 (sc), vehicle: saline) 92 % of control; (dose: 6.25 mg/kg/injection, schedule: Q01DX010 (sc), vehicle: saline) 99 % of control; (dose: 25.0 mg/kg/injection, schedule: Q01DX010 (sc), vehicle: saline) 86 % of control.
In the case of `C=C1C(=O)OCC2C(C(=O)O)=CC3C(C)C(C)=CC123` (centres undefined), the T/C (dose: 6.25 mg/kg/injection, schedule: Q01DX010 (sc), vehicle: Klucel (hydroxypropylcellulose) (HPC)) is 78 % of control and the T/C under setting [3] was 113 % of control.
With `CC1=C(/C=C/C(C)=C/C=C/C(C)=C/C=O)C(C)(C)CCC1`, the T/C by setting is: (dose: 150.0 mg/kg/injection, schedule: Q04DX003 (sc), vehicle: saline with Tween-80) 88 % of control; (dose: 300.0 mg/kg/injection, schedule: Q04DX003 (sc), vehicle: saline with Tween-80) 98 % of control; (dose: 1200.0 mg/kg/injection, schedule: Q04DX003 (sc), vehicle: saline with Tween-80) 53 % of control.
As to `N/C(=N\OC(=O)Nc1ccc(CSc2ccc(Cl)cc2)o1)c1ccccn1`, the T/C is 62 % of control (dose: 9.38 mg/kg/injection, schedule: Q04DX003 (sc), vehicle: saline); 66 % of control (dose: 18.75 mg/kg/injection, schedule: Q04DX003 (sc), vehicle: saline); 40 % of control (dose: 37.5 mg/kg/injection, schedule: Q04DX003 (sc), vehicle: saline); 102 % of control under setting [6]; 97 % of control under setting [1].
Regarding `NC(Cc1ccc(N(CCCl)CCCl)cc1)C(=O)O` (centres undefined), the T/C runs as follows: (dose: 10.0 mg/kg/injection, schedule: Q04DX003 (sc), vehicle: Klucel (hydroxypropylcellulose) (HPC)) -99 % of control; (dose: 20.0 mg/kg/injection, schedule: Q04DX003 (sc), vehicle: Klucel (hydroxypropylcellulose) (HPC)) -100 % of control; under setting [5], -99 % of control.
Take `C=Cc1cnc([N+](=O)[O-])n1C`: the T/C was 72 % of control under setting [6], 78 % of control under setting [1] and 54 % of control under setting [2].
Turning to `C[C@]12C=CC(=O)C=C1CC[C@@H]1[C@@H]2[C@@H](O)C[C@@]2(C)[C@H]1CC[C@]2(O)C(=O)CO`, the T/C under setting [3] is 50 % of control, the T/C under setting [4] was 67 % of control, the T/C under setting [7] was 55 % of control and the T/C under setting [8] was 24 % of control.
Take `CCC(CC)COC(=O)c1ccccc1C(=O)OCC(CC)CC`: the T/C is 112 % of control under setting [9]; 82 % of control (dose: 600.0 mg/kg/injection, schedule: Q04DX003 (sc), vehicle: saline); 110 % of control (dose: 1200.0 mg/kg/injection, schedule: Q04DX003 (sc), vehicle: saline); 88 % of control (dose: 2400.0 mg/kg/injection, schedule: Q04DX003 (sc), vehicle: saline).
On to `NC(CNC(=O)CBr)C(=O)O` (centres undefined), for which the T/C reads like this: (dose: 37.5 mg/kg/injection, schedule: Q04DX003 (sc), vehicle: water) 53 % of control; (dose: 75.0 mg/kg/injection, schedule: Q04DX003 (sc), vehicle: water) 10 % of control and 17 % of control; (dose: 100.0 mg/kg/injection, schedule: Q04DX003 (sc), vehicle: water) 9 % of control; (dose: 150.0 mg/kg/injection, schedule: Q04DX003 (sc), vehicle: water) 8 % of control and 13 % of control.
Regarding `C[n+]1cccc(NC(=O)c2ccc(NC(=O)C34CCC(C(=O)Nc5ccc(C(=O)Nc6ccc[n+](C)c6)cc5)(CC3)CC4)cc2)c1`, the T/C reads like this: (dose: 12.5 mg/kg/injection, schedule: Q04DX003 (sc), vehicle: saline with Tween-80) 118 % of control; (dose: 25.0 mg/kg/injection, schedule: Q04DX003 (sc), vehicle: saline with Tween-80) 64 % of control; (dose: 50.0 mg/kg/injection, schedule: Q04DX003 (sc), vehicle: saline with Tween-80) 35 % of control; (dose: 100.0 mg/kg/injection, schedule: Q04DX003 (sc), vehicle: saline with Tween-80) 27 % of control.
Regarding `O=[N+]([O-])c1ccc(N(CCO)CCO)c2c1no[n+]2[O-]`, the T/C is 101 % of control (dose: 12.5 mg/kg/injection, schedule: Q04DX003 (ip), vehicle: saline with Tween-80); 108 % of control (dose: 25.0 mg/kg/injection, schedule: Q04DX003 (ip), vehicle: saline with Tween-80); 75 % of control (dose: 50.0 mg/kg/injection, schedule: Q04DX003 (ip), vehicle: saline with Tween-80).
`COc1ccc(/C=C/C(=O)c2cc(C(=O)O)c(OC)cc2OC)cc1OC`: the T/C (dose: 300.0 mg/kg/injection, schedule: Q04DX003 (sc), vehicle: suspension in saline) was 99 % of control.
With `COC1/C=C/C=C(/C)Cc2cc(O)c(Cl)c(c2)N(C)C(=O)CC(OC(=O)C(C)C)C2(C)OC2C(C)C2CC1(O)NC(=O)O2` (centres undefined), the T/C (dose: 1.0 mg/kg/injection, schedule: Q04DX003 (sc), vehicle: saline + alcohol) was 95 % of control; the T/C (dose: 2.0 mg/kg/injection, schedule: Q04DX003 (sc), vehicle: saline + alcohol) was 78 % of control and 87 % of control (2×); the T/C (dose: 16.0 mg/kg/injection, schedule: Q04DX003 (sc), vehicle: saline + alcohol) is 3 % of control and -8 % of control.
With `COc1cccc2c1C(=N)c1c(O)c3c(c(O)c1C2=O)C[C@@](O)(C(C)=O)C[C@@H]3OC1CC(N)C(O)C(C)O1` (some centres undefined), the T/C is, setting by setting: under setting [10], 62 % of control; under setting [11], 13 % of control and 21 % of control.
`COc1cccc2c1C(=O)c1c(O)c3c(c(O)c1C2=O)C[C@@](O)(/C(C)=N/NC(=O)c1ccc(Cl)cc1)C[C@@H]3OC1CC(N)C(O)C(C)O1` (some centres undefined): the T/C (dose: 1.0 mg/kg/injection, schedule: Q01DX010 (sc), vehicle: water) was 58 % of control; the T/C under setting [10] is 84 % of control and 109 % of control; the T/C under setting [11] is 49 % of control.
For `CCCCc1ccc(-n2c(C)c(COC(=O)NC)c(COC(=O)NC)c2C)cc1`, the T/C is 114 % of control under setting [3], 84 % of control under setting [4], 34 % of control under setting [7] and 77 % of control under setting [8].
`O=P1(NCCCl)OCCCN1CCCl` (centres undefined): the T/C by setting is: (dose: 150.0 mg/kg/injection, schedule: Q04DX003 (sc), vehicle: saline) -95 % of control and -100 % of control; under setting [9], -100 % of control.
Turning to `CCOC(=O)C(CC(C)C)NC(=O)C(N)Cc1ccc(N(CCCl)CCCl)cc1` (centres undefined), the T/C (dose: 60.0 mg/kg/injection, schedule: Q04DX003 (sc), vehicle: water) was -100 % of control.

(Values after PubChem BioAssay AID296 (DTP/NCI, 2004).)
